Results as given in patent US20090054471A1, “PYRIDOPYRAZOLOPYRIMIDINE COMPOUNDS AND THEIR USES AS ANTI-CANCER AND ANTI-DIABETE DRUGS” (Smithkline Beecham Corporation, priority 2005, published 2009).

How the values were obtained:
Format in all cases: biochemical
Human GSK3b = target: T1, Human GSK3b (Homo sapiens, UniProt P49841); experiment: GSK3b kinase scintillation proximity assay; details: 2.5 uM ATP, 11-point dose-response 0.0001 to 10 μM; read-out: GSK3
T1 construct: 6-His (N); made in house; host or cells: E. coli
Description: Human GSK3b was expressed in E. coli with a 6-His tag at the N-terminus. The protein was purified using metal-chelate affinity chromatography. The incorporation of radioactive phosphate into a biotinylated synthetic peptide, Biotin-Ahx-[…](PO3)YR-amide was detected using a scintillation proximity assay (SPA) method as described above. Assay conditions were as follows: 100 mM HEPES, pH 7.2, 10 mM MgCl2, 0.3 mg/mL heparin sulfate, 0.1 mg/mL BSA, 1 mM DTT, 2.5 uM ATP, 0.6 uCi/rxn ^33P-ATP, 1.2 ug/mL GSK-3b protein. The plates are incubated at room temperature for 19 minutes prior to the addition of SPA stop solution.
(§1) Data Calculations—Peptide substrate phosphorylation reactions were performed as described above. The example compound indicated was serially diluted 1 to 3 and added to the reactions to produce an 11-point dose-response curve ranging from 0.0001 to 10 μM.

[1] = target: T2, vascular endothelial growth factor receptor 2 (VEGFR2) (Homo sapiens, UniProt P35968); experiment: VEGFR2 kinase assay (homogeneous time-resolved fluorescence); details: 75 μM ATP, 11-point dose-response 0.0001 to 10 μM; read-out: VEGF-R
T2 construct: The catalytic domains of vascular endothelial growth factor receptor 2 (VEGFR2) was expressed and purified; made in house
Description: The catalytic domains of vascular endothelial growth factor receptor 2 (VEGFR2) was expressed and purified using methods similar to those described for ErbB-2 and EGFR. Kinase assays were performed as described above with the following modifications: VEGFR2 assays contained 10 nM enzyme, 100 mM HEPES, pH 7.5, 0.1 mg/ml bovine serum albumin, 0.1 mM dithiothreitol, 360 nM peptide A, 75 μM ATP, and 5 mM MgCl2. The reaction was allowed to proceed for 40 min. Product was detected using a homogeneous time-resolved fluorescence procedure (Park, Y.-W., Cummings, R. T., Wu, L., Zheng, S., Cameron, P. M., Woods, A., Zaller, D. M., Marcy, A. I., and Hermes, J. D. (1999) Anal. Biochem. 269, 94-104). Briefly, the reactions were quenched by adding 100 μl of 100 mM HEPES, pH 7.5, 100 mM EDTA, 45 nM streptavidin-linked allophycocyanin (Molecular Probes, Eugene, Oreg.), and 3 nM europium-conjugated anti-phosphotyrosine antibody (Wallac, Turku, Finland). The product was detected using a Victor plate reader (Wallac, Turku, Finland) with a time delay at 665 nm.
as §1

ErbB-2 = target: T3, ErbB-2 (Homo sapiens, UniProt P04626); experiment: ErbB-2 protein tyrosine kinase substrate phosphorylation assay (SPA); details: 10 μM ATP, 11-point dose-response 0.0001 to 10 μM; read-out: ErbB2
T3 construct: made in house; host or cells: baculovirus expression system (insect cells)
Description: (§2) Compounds of the present invention were tested for EGFR or ErbB-2 protein tyrosine kinase inhibitory activity in substrate phosphorylation assays using enzymes purified from a baculovirus expression system.
(§3) The method measures the ability of the isolated enzyme to catalyse the transfer of the γ-phosphate from ATP onto tyrosine residues in a biotinylated synthetic peptide (biotin-Ahx-[…]-amide). Reactions were performed in 96 or 384 well polystyrene plates in a final volume of 20 or 45 μl. […] ATP per reaction, 2 μM peptide substrate, and 1 mM dithiothreitol. Reactions were initiated by adding 1 pmol (20 nM) per reaction of the indicated enzyme.
as §1

EGFR = target: T4, EGFR (Homo sapiens, UniProt P00533); experiment: EGFR protein tyrosine kinase substrate phosphorylation assay (SPA); details: 10 μM ATP, 11-point dose-response 0.0001 to 10 μM
T4 construct: made in house; host or cells: baculovirus expression system (insect cells)
Description: as §2, §3, §1

T2 sequence (P35968 834-1162 limits assumed): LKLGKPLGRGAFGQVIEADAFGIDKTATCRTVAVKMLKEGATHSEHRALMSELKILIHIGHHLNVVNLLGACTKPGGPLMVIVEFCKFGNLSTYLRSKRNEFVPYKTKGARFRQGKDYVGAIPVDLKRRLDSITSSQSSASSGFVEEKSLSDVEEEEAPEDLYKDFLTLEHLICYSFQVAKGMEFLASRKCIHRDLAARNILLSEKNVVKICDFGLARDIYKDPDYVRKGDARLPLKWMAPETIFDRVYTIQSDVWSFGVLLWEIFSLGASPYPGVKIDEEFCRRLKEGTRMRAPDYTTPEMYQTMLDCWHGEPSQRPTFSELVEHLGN
T4 sequence (P00533 669-1210 limits assumed): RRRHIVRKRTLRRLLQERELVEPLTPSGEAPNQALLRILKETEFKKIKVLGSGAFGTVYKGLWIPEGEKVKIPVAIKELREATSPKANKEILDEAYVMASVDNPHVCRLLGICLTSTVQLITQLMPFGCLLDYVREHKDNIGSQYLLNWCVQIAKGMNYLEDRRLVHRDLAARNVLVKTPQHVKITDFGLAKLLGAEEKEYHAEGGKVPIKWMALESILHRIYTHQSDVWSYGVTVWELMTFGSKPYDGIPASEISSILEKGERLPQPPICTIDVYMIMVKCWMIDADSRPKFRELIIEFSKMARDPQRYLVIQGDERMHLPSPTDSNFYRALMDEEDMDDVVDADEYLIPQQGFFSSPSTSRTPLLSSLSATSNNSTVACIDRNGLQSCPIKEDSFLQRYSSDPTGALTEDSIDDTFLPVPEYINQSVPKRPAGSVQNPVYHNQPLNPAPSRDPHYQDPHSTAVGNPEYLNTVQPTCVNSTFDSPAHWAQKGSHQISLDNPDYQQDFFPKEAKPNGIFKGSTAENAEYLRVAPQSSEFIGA
T3 sequence (P04626 676-1255 limits assumed): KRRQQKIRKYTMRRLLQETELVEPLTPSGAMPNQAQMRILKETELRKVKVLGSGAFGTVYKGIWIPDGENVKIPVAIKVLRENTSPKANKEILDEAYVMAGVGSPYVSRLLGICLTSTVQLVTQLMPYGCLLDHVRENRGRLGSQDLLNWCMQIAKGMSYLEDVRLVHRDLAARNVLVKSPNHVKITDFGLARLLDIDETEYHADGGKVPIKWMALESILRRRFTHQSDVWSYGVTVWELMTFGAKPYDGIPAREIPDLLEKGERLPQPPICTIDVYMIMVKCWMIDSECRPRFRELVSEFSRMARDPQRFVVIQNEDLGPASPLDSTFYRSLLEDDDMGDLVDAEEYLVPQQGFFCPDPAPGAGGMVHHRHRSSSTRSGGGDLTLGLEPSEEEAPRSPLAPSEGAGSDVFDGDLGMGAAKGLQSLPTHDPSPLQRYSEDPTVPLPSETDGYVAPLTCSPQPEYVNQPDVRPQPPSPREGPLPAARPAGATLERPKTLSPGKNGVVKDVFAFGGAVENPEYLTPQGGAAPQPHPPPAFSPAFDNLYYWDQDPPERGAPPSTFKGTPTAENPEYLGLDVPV
T1 sequence (P49841 whole entry): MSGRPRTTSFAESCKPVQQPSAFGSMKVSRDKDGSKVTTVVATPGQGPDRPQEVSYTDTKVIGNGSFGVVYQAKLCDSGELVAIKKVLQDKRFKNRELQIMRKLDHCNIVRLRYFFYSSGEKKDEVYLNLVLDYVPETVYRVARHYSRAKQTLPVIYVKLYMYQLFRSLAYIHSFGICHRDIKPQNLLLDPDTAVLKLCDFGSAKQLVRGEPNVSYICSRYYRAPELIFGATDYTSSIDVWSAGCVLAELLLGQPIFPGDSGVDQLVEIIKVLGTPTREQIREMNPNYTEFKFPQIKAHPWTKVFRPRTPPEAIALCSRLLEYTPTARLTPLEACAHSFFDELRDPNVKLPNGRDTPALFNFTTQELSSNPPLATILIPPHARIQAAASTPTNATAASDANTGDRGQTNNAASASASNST

SMILES	IC50 (Human GSK3b) [µM]	IC50 [1] [µM]	IC50 (ErbB-2) [µM]	IC50 (EGFR) [µM]
O=C(Nc1cccc([N+](=O)[O-])c1)Nc1ncnc2nn3ccccc3c12 [Example 10, N-(3-nitrophenyl)-N′-pyrido[1′,2′:1,5]pyrazolo[3,4-d]pyrimidin-4-ylurea]	0.1 to 1	> 10	> 10	> 10
O=C(Nc1ccc(Br)cc1)Nc1ncnc2nn3ccccc3c12 [Example 11, N-(4-bromophenyl)-N′-pyrido[1′,2′:1,5]pyrazolo[3,4-d]pyrimidin-4-ylurea]	1 to 10	1 to 10	> 10	> 10
Fc1ccc(Nc2ncnc3nn4ccccc4c23)cc1Cl [Example 4, N-(3-chloro-4-fluorophenyl)pyrido[1′,2′:1,5]pyrazolo[3,4-d]pyrimidin-4-amine]	> 10	> 10	–	–
Clc1cc(Nc2ncnc3nn4ccccc4c23)ccc1OCc1ccccc1 [Example 6, N-{3-chloro-4-[(phenylmethyl)oxy]phenyl}pyrido[1′,2′:1,5]pyrazolo[3,4-d]pyrimidin-4-amine]	> 10	> 10	0.1 to 1	< 0.1
C(=NNc1ncnc2nn3ccccc3c12)c1c[nH]c2ccccc12 [Example 14, 1H-indole-3-carbaldehyde pyrido[1′,2′:1,5]pyrazolo[3,4-d]pyrimidin-4-ylhydrazone]	1 to 10	> 10	> 10	1 to 10
O=C(Nc1cccc(C(F)(F)F)c1)Nc1ncnc2nn3ccccc3c12 [Example 9, N-pyrido[1′,2′:1,5]pyrazolo[3,4-d]pyrimidin-4-yl-N′-[3-(trifluoromethyl)phenyl]urea]	0.1 to 1	0.1 to 1	> 10	> 10
Fc1cccc(COc2ccc(Nc3ncnc4nn5ccccc5c34)cc2Cl)c1 [Example 5, N-(3-chloro-4-{[(3-fluorophenyl)methyl]oxy}phenyl)-pyrido[1′,2′:1,5]pyrazolo[3,4-d]pyrimidin-4-amine]	> 10	> 10	–	–
Nc1ncnc2nn3ccccc3c12 [Example 1, pyrido[1′,2′:1,5]pyrazolo[3,4-d]pyrimidin-4-amine]	> 10	> 10	> 10	> 10
O=C(Nc1ccc(F)cc1)Nc1ncnc2nn3ccccc3c12 [Example 13, N-(4-fluorophenyl)-N′-pyrido[1′,2′:1,5]pyrazolo[3,4-d]pyrimidin-4-ylurea]	> 10	0.1 to 1	> 10	> 10
c1ccc(Cc2nc3ccc(Nc4ncnc5nn6ccccc6c45)cc3[nH]2)cc1 [Example 7, N-[2-(phenylmethyl)-1H-benzimidazol-5-yl]pyrido[1′,2′:1,5]pyrazolo-[3,4-d]pyrimidin-4-amine]	> 10	> 10	1 to 10	1 to 10
N#Cc1cccc(NC(=O)Nc2ncnc3nn4ccccc4c23)c1 [Example 8, N-(3-cyanophenyl)-N′-pyrido[1′,2′:1,5]pyrazolo[3,4-d]pyrimidin-4-ylurea]	0.1 to 1	0.1 to 1	> 10	> 10
O=C(Nc1ccc(C(F)(F)F)cc1)Nc1ncnc2nn3ccccc3c12 [Example 12, N-pyrido[1′,2′:1,5]pyrazolo[3,4-d]pyrimidin-4-yl-N′-[4-(trifluoromethyl)phenyl]urea]	1 to 10	1 to 10	> 10	> 10
